In US12570612B2, “Substituted nitrogen heterocyclic compound and anesthetic effect thereof” (priority 2019, dated 2026):
Where “and” joins values, the source holds several entries; their conditions need not be identical. Equal entries are not always repeated. Entries after “also recorded” stand apart in the source; their conditions may differ. Where two headings read alike, the source gives them in different places.

Tests used:
Sprague-Dawley rats [1] = experiment: animal or person; assay type: in vivo; conditions: rats; for ED50: LORR, up and down method, tail vein, class symbols
From the text: Evaluating indicator: The end point of anesthesia: LORR was used as the end point of anesthesia; General anesthesia effect: the disappearance of forepaw righting reflex in rats lasting for 30 seconds is taken as the index of general anesthesia effect; Anesthesia recovery index: the recovery of rat forepaw righting reflex was used as the index of anesthesia recovery.

Sprague-Dawley rats [2] = experiment: Pharmacological effect and adverse reactions under the equivalent dose (2ED50), Group C compounds; assay type: in vivo; conditions: for Righting reflex duration / Sedation duration / Onset time: 2ED50, tail vein, rats, n=8; for Adverse reaction: Convulsions / Adverse reaction: Cough, broken-winded / Adverse reaction: Euphoria / Adverse reaction: Red urine / Adverse reaction: Slower breathing, Tetany convulsion / Adverse reaction: Systemic stiffness, Convulsions, Opisthotonus / Adverse reaction: Tongue stretching / Adverse reaction: Tremor / Adverse reaction: the four limbs rigidity: equivalent dose (2ED50), number of rats of n = 8
From the text: Evaluation index: onset time: from the completion of drug injection to the disappearance of forepaw righting reflex in rats; Duration of anesthesia: the time from the disappearance of rat forepaw righting reflex to the recovery of rat forepaw righting reflex; Recovery time of anesthesia: the time from the […] to complete recovery;

Sprague-Dawley rats [3] = assay type: in vivo; conditions: tail vein
Sprague-Dawley rats [4] = experiment: animal or person; conditions: for Approximate therapeutic index / Minimal lethal dose: rats
Description: Adult male Sprague-Dawley rats (250-300 g) were selected for the experiment. […] The anesthesia effects of the compounds were assessed in rats using a LORR assay and a period >30 s was considered as an indicator of general anesthesia.

Sprague-Dawley rats [5] = experiment: Pharmacological characteristics at equivalent doses (2ED50), Group A compounds; assay type: in vivo; design: Sedation duration: unit not given here; conditions: 2ED50, tail vein; for Types and incidence of adverse reactions: (animals affected/animals)
H295R cell line = experiment: Adrenocortical function in vitro test: secretion of cortisol and corticosterone, Group A compounds; assay type: cell-based; conditions: H295 cells; for EC50: 0.1-10000 nM, HPLC-MS/MS
Sprague-Dawley rats [6] = conditions: for Recovery time after stopping infusion: LORR maintained for 1 hour; for Recovery time after stopping infusion / Onset time: 2 times the MIR; for Onset time / Types and incidence of adverse reactions: continuous infusion; for Types and incidence of adverse reactions: (animals affected/animals)
Description: Adult male Sprague-Dawley rats with body weight ranging from 250 to 300 gm were selected for continuous infusion test. […] Time to recovery of righting reflex from stopping infusion, and time to fully awake from stopping infusion were recorded.

[7] = Rattus norvegicus, read-out: ED50
[8] = Homo sapiens, read-out: EC50 (Corticosterone)
[9] = Homo sapiens, read-out: EC50 (Cortisol)
[10] = LORR in rats, tail vein, brackets = 95% confidence limit
[11] = read-out: EC50 (Corticosterone)

| Structure (SMILES) | Approximate therapeutic index (Sprague-Dawley rats [1]) | Righting reflex duration (Sprague-Dawley rats [2]) | Sedation duration (Sprague-Dawley rats [2]) | Adverse reaction: Convulsions (Sprague-Dawley rats [2]) | Adverse reaction: Cough, broken-winded (Sprague-Dawley rats [2]) | Adverse reaction: Euphoria (Sprague-Dawley rats [2]) | Adverse reaction: Red urine (Sprague-Dawley rats [2]) | Adverse reaction: Slower breathing, Tetany convulsion (Sprague-Dawley rats [2]) | Adverse reaction: Systemic stiffness, Convulsions, Opisthotonus (Sprague-Dawley rats [2]) | Adverse reaction: Tongue stretching (Sprague-Dawley rats [2]) | Approximate therapeutic index (Sprague-Dawley rats [4]) | Minimal lethal dose (Sprague-Dawley rats [4]) | Onset time (Sprague-Dawley rats [5]) | Righting reflex duration (Sprague-Dawley rats [5]) | Types and incidence of adverse reactions (Sprague-Dawley rats [5]) | Corticosterone as an indicator to determine the presence of inhibition (H295R cell line) | Cortisol as an indicator to determine the presence of inhibition (H295R cell line) | Recovery time after stopping infusion (Sprague-Dawley rats [6]) | Onset time (Sprague-Dawley rats [6]) | Types and incidence of adverse reactions (Sprague-Dawley rats [6]) | further results |
| --- | --- | --- | --- | --- | --- | --- | --- | --- | --- | --- | --- | --- | --- | --- | --- | --- | --- | --- | --- | --- | --- |
| C[C@H](c1ccccc1)n1cncc1C(=O)COCC1CC1 [Compound C46] | >2.4 | 1.82 ± 0.64 min | 5.63 ± 1.52 min | 0 | 0 | 0 | 8 | 0 | 0 | 1 |  |  |  |  |  |  |  |  |  |  | ED50 (Sprague-Dawley rats [1]; [7]): 2 to 10 mg/kg; Onset time (Sprague-Dawley rats [2]; unit s): <30 s; Adverse reaction: Tremor (Sprague-Dawley rats [2]): 1; Adverse reaction: the four limbs rigidity (Sprague-Dawley rats [2]): 0; Minimal lethal dose (Sprague-Dawley rats [3]): >11.8 mg/kg |
| C/C=C\C(=O)c1cncn1[C@H](C)c1ccccc1 [Compound C55] | >16.6 | 1.83 ± 0.30 min | 6.26 ± 2.45 min | 0 | 0 | 0 | 8 | 0 | 7 | 0 |  |  |  |  |  |  |  |  |  |  | ED50 (Sprague-Dawley rats [1]; [7]): 2 to 10 mg/kg; Onset time (Sprague-Dawley rats [2]; unit s): <30 s; Adverse reaction: Tremor (Sprague-Dawley rats [2]): 0; Adverse reaction: the four limbs rigidity (Sprague-Dawley rats [2]): 0; Minimal lethal dose (Sprague-Dawley rats [3]): >13.61 mg/kg |
| CC#CCOCC(=O)c1c(F)ncn1[C@H](C)c1ccccc1 [Compound C69] | >19.2 | 1.91 ± 0.68 min | 6.28 ± 1.62 min | 0 | 0 | 0 | 8 | 0 | 1 | 0 |  |  |  |  |  |  |  |  |  |  | ED50 (Sprague-Dawley rats [1]; [7]): 0.04 to 0.5 mg/kg; Onset time (Sprague-Dawley rats [2]; unit s): <30 s; Adverse reaction: Tremor (Sprague-Dawley rats [2]): 0; Adverse reaction: the four limbs rigidity (Sprague-Dawley rats [2]): 0; Minimal lethal dose (Sprague-Dawley rats [3]): >4.2 mg/kg |
| CC#CCOCC(=O)c1cc(F)nn1[C@H](C)c1ccccc1 [Compound C14] | >6.0 | 1.38 ± 0.47 min | 9.03 ± 1.58 min | 0 | 0 | 1 | 8 | 0 | 0 | 0 |  |  |  |  |  |  |  |  |  |  | ED50 (Sprague-Dawley rats [1]): ++++ (++++ indicates that the measured ED50 is in the range of 2.00-10.00 mg/kg (excluding 2.00 mg/kg, including 6.00 mg/kg)); Onset time (Sprague-Dawley rats [2]; unit min): <60 s; Adverse reaction: Tremor (Sprague-Dawley rats [2]): 1; Adverse reaction: the four limbs rigidity (Sprague-Dawley rats [2]): 0; Minimal lethal dose (Sprague-Dawley rats [3]): >14.5 mg/kg |
| CC1OC1C(=O)c1cncn1[C@H](C)c1ccccc1 (stereo partly drawn) [Compound C56] | >16.6 | 1.49 ± 0.62 min | 5.32 ± 1.21 min | 0 | 0 | 0 | 8 | 0 | 0 | 1 |  |  |  |  |  |  |  |  |  |  | ED50 (Sprague-Dawley rats [1]; [7]): 2 to 10 mg/kg; Onset time (Sprague-Dawley rats [2]; unit min): <60 s; Adverse reaction: Tremor (Sprague-Dawley rats [2]): 1; Adverse reaction: the four limbs rigidity (Sprague-Dawley rats [2]): 0; Minimal lethal dose (Sprague-Dawley rats [3]): >13.61 mg/kg |
| C=C=CC1(OC(=O)c2ccnn2[C@H](C)c2ccccc2)COC1 [Compound A24] |  |  |  |  |  |  |  |  |  |  | >31 | >6 mg/kg | 0.47 ± 0.09 min | 1.47 ± 0.63 min | Red and urine(8/8), Convulsions(5/ and 8), Hindlimb rigidity (2/8) | 0 | 0 | 8 to 12 min | 4 to 5 min | Tremor(2/6), Tongue; also recorded: stretching(4/6) | ED50 (Sprague-Dawley rats [4]; Rattus norvegicus): 0.04 to 0.5 mg/kg; EC50 (H295R cell line; [8]): > 1 µM; EC50 (H295R cell line; [9]): > 1 µM |
| COC1CC(OC(=O)c2c(F)cnn2C(C)c2ccccc2)C1 (stereo not drawn) [Compound A76] |  |  |  |  |  |  |  |  |  |  | >10 | >2 mg/kg | 0.36 ± 0.12 min | 2.29 ± 0.56 min | Red urine(8/8),; also recorded: Tremor(2/8),; also recorded: Euphoria(1/8) | 0 | 0 | 14 to 16 min | 3 to 4 min | Tremor(1/6), Tongue; also recorded: stretching(2/6) | ED50 (Sprague-Dawley rats [4]; [10]): A (A indicates that the measured ED50 is in the range of 0.04-0.50 mg/kg (including 0.04 and 0.50 mg/kg)); Sedation duration (Sprague-Dawley rats [5]): 9.08 ± 2.16; EC50 (H295R cell line; [11]): > 1 µM; EC50 (H295R cell line; read-out: EC50 (Cortisol)): > 1 µM |
| C=C=CC1(OC(=O)c2cc(F)nn2[C@H](C)c2ccccc2)COC1 [Compound A52] |  |  |  |  |  |  |  |  |  |  | >16 | >11 mg/kg | 0.50 ± 0.08 min | 2.01 ± 1.00 min | Red and urine(8/8), Euphoria(3/8), and broken-winded(1/8) | 0 | 0 | 13 to 18 min | 5 to 6 min | Tongue stretching(4/6),; also recorded: Tremor(4/6) | ED50 (Sprague-Dawley rats [4]; Rattus norvegicus): 0.5 to 1 mg/kg; EC50 (H295R cell line; [8]): > 1 µM; EC50 (H295R cell line; [9]): > 1 µM |
| COC(=O)C1=C(OC(=O)c2ccnn2[C@H](C)c2ccccc2)CCC1 [Compound A20] |  |  |  |  |  |  |  |  |  |  | >10 | >12 mg/kg | 0.67 ± 0.14 min | 1.15 ± 0.66 min | Red urine(8/8), Hindlimb; also recorded: rigidity(3/8), General; also recorded: Tremor(1/8) | 0 | 0 | 12 to 15 min | 5 to 6 min | Tremor(5/6) | ED50 (Sprague-Dawley rats [4]; [10]): C (C indicates that the measured ED50 is in the range of 1.00-2.00 mg/kg (excluding 1.00 mg/kg, including 2.00 mg/kg)); Sedation duration (Sprague-Dawley rats [5]): 7.05 ± 3.95; EC50 (H295R cell line; [11]): > 0.1 µM; EC50 (H295R cell line; read-out: EC50 (Cortisol)): > 0.1 µM |
| CC(=O)C1=C(OC(=O)c2c(F)cnn2[C@H](C)c2ccccc2)CCC1 [Compound A90] |  |  |  |  |  |  |  |  |  |  | >5 | >10 mg/kg | 0.51 ± 0.07 min | 5.21 ± 1.45 min | Red and urine(8/8), Convulsions(2/ and 8), Nod(1/8) | 0 | 0 | 2 to 15 min | 5 to 6 min | Tremor(3/6) | ED50 (Sprague-Dawley rats [4]; Rattus norvegicus): 1 to 2 mg/kg; EC50 (H295R cell line; [8]): > 1 µM; EC50 (H295R cell line; [9]): > 1 µM |
| C[C@H](c1ccccc1)n1nccc1C(=O)OC1CCC1 [Compound A4] |  |  |  |  |  |  |  |  |  |  | >11 | >15 mg/kg | 0.52 ± 0.21 min | 1.39 ± 0.66 min | Red urine(6/6),; also recorded: Euphoria(5/6), Hindlimb; also recorded: rigidity(1/6) | 0 | 0 | 14 to 16 min | 4 to 5 min | Tremor(3/6), Tongue; also recorded: stretching(4/6) | ED50 (Sprague-Dawley rats [4]; Rattus norvegicus): 1 to 2 mg/kg; EC50 (H295R cell line; [8]): > 1 µM; EC50 (H295R cell line; [9]): > 1 µM |
| C[C@H](c1ccccc1)n1nccc1C(=O)OC1(C)COC1 [Compound A30] |  |  |  |  |  |  |  |  |  |  | >6 | >7 mg/kg | 0.3 ± 0.22 min | 2.6 ± 0.83 min | Red and urine(8/8), Euphoria(3/8), and Tremor(1/8) | 0 | 0 | 8 to 14 min | 3 to 4 min | Tremor(2/6) | ED50 (Sprague-Dawley rats [4]; Rattus norvegicus): 1 to 2 mg/kg; EC50 (H295R cell line; [8]): > 1 µM; EC50 (H295R cell line; [9]): > 1 µM |
